# Data from patent publication US9907787B2, “Method of supplementing the diet and ameliorating oxidative stress” (priority 2008, dated 2018).
# Values joined by “and” are separate entries in the source; they are usually repeats but may differ in a detail not shown here. Identical values can stand only once. “Also recorded” adds a separate entry of the source.
# Key:
# [1] = water soluble antioxidants and chelators, rapidly cleared by kidneys or liver; cited from earlier work
# rats = conditions: intraperitoneal; cited from earlier work
# [2] = ORAC (oxygen-radical-absorbance-capacity) score; format: biochemical
# Experimental: As should be appreciated from the following table, OSR has an exceptionally high ORAC (oxygen-radical-absorbance-capacity) score.
# The ORAC score is measured by a compound or elixer's ability to intercept reactive oxygen species, free radicals preventing them from oxidizing a water soluble fluorescent vitamin-E derivative. OSR has the ability in the body to protect vitamin-E (a fat soluble vitamin) and other fat soluble natural compounds such as lipids from damage by oxidizing free radicals since it partitions into the hydrophobic areas where they exist and reacts with free radicals more effectively than they do, thereby scavenging the hydroxyl free radicals and preventing them from doing damage. […] OSR is more capable of reacting with these radicals than vitamin-E and, accordingly, OSR should provide even better protection. In fact, OSR should salvage vitamin E and D in vivo.
# [3] = Toxicity / LD-50 in test animals; format: in vivo
# Text: In fact, OSR is so non-toxic that an LD-50 could not be identified and was established as greater than 5 grams per kilogram body weight.
# [4] = Kinetic study: plasma half-life, tissue distribution and clearance; format: in vivo
# Text: The mitochondria, especially if abnormal or damaged by heavy metals or radiation, are the main producers of the free radicals that cause cellular damage to the membranes, proteins or nucleic acids (DNA, RNA). Therefore, OSR is positioned to intercept these free radicals before they do damage and the ORAC scores show us OSR is exceptional at scavenging these toxic chemicals. Thus, OSR operates as an antioxidant in a more efficient and effective level than antioxidants generally known in the art.
# It should also be appreciated that OSR is cleared from all tissues tested by over 90% twenty-four hours after ingestion. Therefore, no toxic build-up of OSR occurs in the mammal.
# Preferred dosage forms for oral administration include the isolated compounds in powder form. Such powders may be taken up with a swoop and spread onto food or mixed into drinks for easy consumption without bad taste. The pure compounds may be pre-mixed with certain dietary ingredients such as butter, olive oil, corn oil, albumin, whey or other foods which will help in absorption of the compounds by the mere process of dissolving them. Using OSR dissolved in corn oil, it was determined that it takes two hours post ingestion for the maximum level of OSR to show up in the plasma of all tested animals.
# Storage stability = format: physicochemical; conditions: sealed plastic test tubes, sixteen months, room temperature
# Text: OSR also has excellent stability when stored in sealed plastic test tubes with less than three percent breakdown occurring at sixteen months of storage at room temperature. Most antioxidants break down very rapidly when exposed to air or water but OSR is exceptional in this regards.
# blood GSH, GSSG = test: Effect of daily OSR on blood GSH, GSSG levels and GSH/GSSG ratios; format: in vivo, human; conditions: 10 subjects, 200 mg of OSR per day
# Text: Effect of daily administration of OSR on key biochemical parameters. […] Also, the major improvement seemed to result from the very significant decrease in oxidized glutathione (GSSG) instead of a total increase in all forms of glutathione. This would be best explained by OSR scavenging hydroxyl free radicals salvaging the GSH by preventing its oxidation to GSSG. This change occurred in 10 of 10 subjects.
# All were in reasonable health with no obvious bacterial infections. GSH/GSSG ratios increased in all primarily due to the drop in GSSG levels in all subjects. […] The average tGSH/GSSG ratio almost doubled caused by a near average halving of the GSSG levels.
# [5] = system: cysteine, methionine, homocysteine; test: Effect of OSR on blood sulfur containing amino acid levels; format: in vivo, human; conditions: 10 patients, two month period
# Text: To determine if OSR changed the level of cysteine, the rate limiting amino acid in glutathione synthesis, the level of all thiol containing amino acids was done for the same 10 patients for a two month period. […] The homocysteine level was high in patient #9, a person diagnosed with Alzheimer's disease, over the two month testing their levels dropped to near normal levels.
# The possible exception was the homocysteine levels in patient #9, a person with Alzheimer's disease.
# [6] = system: glutathione-S-transferase (GST); test: Effect of OSR on Glutathione-S-transferase (GST) levels; format: in vivo, human; conditions: for Glutathione-S-transferase (GST) levels: lines = patients 1-10
# Text: GST is an enzyme that uses glutathione (GSH) as a substrate to covalently modify certain organic toxins by ‘transferring GSH’ to a P-450 enzyme oxidized site on the toxin. […] GST was non-detectable in all 10 patients at the start of the study and was detectable in all 10 patients at the end of the study. The change in the redox level most likely had something to do with the appearance of this enzyme. It is a common mechanism in cellular regulation that the lowering of a substrate (e.g. glutathione) needed at several locations results in the suppressed expression of the enzyme (e.g. GST) that use this substrate for reactions that are less necessary to support survival. The buildup of GSH most likely induces the expression of GST and this buildup accounts for the induction of new GST synthesis.
# [7] = system: rats injected with mercuric chloride; test: Protective effects of OSR on rats injected with mercuric chloride; format: in vivo, rat; parameters: key to survival (Alive/Dead): A = Alive; D = Dead; conditions: for survival (Alive/Dead): Rat 1-3
# Experimental: Protective effects of OSR on rats injected subcutaneously with mercuric chloride.
# Our experiments were designed around this value.
# For each of the experiments nine, 5-7 weeks old, rats were chosen. They were divided into three groups and they were fed rat chow and water ad libitum.
# The mercuric chloride was dissolved in PBS/DMSO and injected intraperitoneally at time zero.
# The compound OSR was dissolved in 0.75 ml DMSO and 0.25 ml PBS. Injection was subcutaneous under the skin covering the stomach. These were done 20 min. after the injection of the mercuric chloride.
# [8] = Affinity for heavy metals; format: binding
# Text: (§1) Also, copper and zinc are primarily found in a water environment (hydrophilic aspects) of the body whereas OSR partitions into the hydrophobic aspects. This separation may play a role in the lack of OSR removing copper and zinc. However, in diseases with excess free copper, iron or zinc, OSR is likely to be able to bind and decrease the toxicity of these metals.
# [9] = Effect of OSR treatment on essential elements; format: in vivo; conditions: treatment with OSR
# Text: as §1
# Solubility = format: physicochemical
# Text: In fact, the compounds in U.S. Pat. No. 6,586,600 were mostly ineffective at treating environmental contaminations of heavy metal due to their insolubility in water and many organic solvents. The conventional wisdom is that any metal chelator has to be water soluble to be effective is evidenced by the currently known chelators such as dimercapopropane sulfonate (DMPS), dimercaptosuccinic acid (DMSA), ethylenediaminetetraacetic acid (EDTA) and even the natural mammalian heavy metal chelator glutathione. These observations made the use of the compounds questionable for any mammalian based treatment regarding the removal of charged toxic metals like Hg^2+, Pb^2+, and Cd^2+ which are water soluble and would most likely be located in the aqueous aspects of mammalian tissues. Additionally, any compound that is not water soluble nor soluble in most organic solvents would not be expected to pass the intestinal endothelial membrane barrier and enter the blood and tissues of the mammal. Further, the compound(s) would have to cross the cell membrane to be able to interact with and bind the intracellular located heavy metal responsible for the toxic effects. It would also have to be able to cross the blood brain barrier to be effective for any neurotoxic heavy metal effect. […]
structure (smiles),measurement,setting,value
"O=C(O)C(S)C(S)C(=O)O (centres unmarked) [DMSA, dimercaptosuccinic acid]",half-life,[1],less than one to two
[Cl][Hg][Cl] [mercury chloride],LD 50,rats,3.2 mg/kg body weight
N[C@@H](CCC(=O)N[C@@H](CS)C(=O)NCC(=O)O)C(=O)O [glutathione],half-life,[1],less than one to two
"O=S(=O)(O)CC(S)CS (centres unmarked) [DMPS, dimercaptopropane sulfonate]",half-life,[1],less than one to two
Oc1ccc(C=Cc2cc(O)cc(O)c2)cc1 [resveratrol],half-life,[1],less than one to two
"O=C(NCCS)c1cccc(C(=O)NCCS)c1 [OSR, N,N′-bis(2-mercaptoethyl)isophthalamide]",ORAC Score,[2],"192,400 μmoleTE/100 g"
same,LD-50,[3],greater than 5 grams per kilogram body weight
same,toxicity,"[3]; levels up to 5,000 mg per day",without toxicity
same,OSR levels relative to peak values seen at hour 2,"[4]; 24 hours post-ingestion, OSR dissolved in corn oil",4-12%
same,time post ingestion for the maximum level of OSR in plasma,"[4]; OSR dissolved in corn oil, all tested animals",two
same,blood brain barrier / tissue entry,"[4]; kinetic study, all tissues tested",crosses the blood brain barrier
same,half-life in plasma,[4]; plasma of test animals,about six to seven
same,cleared from all tissues tested,[4]; twenty-four hours after ingestion,over 90%
same,breakdown on storage,Storage stability,less than three
same,"GSH levels, result in words","blood GSH, GSSG; two months",increased slightly in 7 of 10
same,"redox ratio (GSH/GSSG), result in words","blood GSH, GSSG; whole blood, OSR taken regularly, approximately 60 days",significantly increase; also recorded: dramatically improved
same,"changes in cysteine, methionine or homocysteine levels, result in words",[5],No significant consistent changes
same,"glutathione-S-transferase (GST), result in words","[6]; 10 patients, after OSR treatment",consistently elevated in all 10 patients
same,Glutathione-S-transferase (GST) levels,[6]; time 1 month,0.58 ng/mL and 0.46 ng/mL
same,Glutathione-S-transferase (GST) levels,[6]; time 2 months,0.53 ng/mL and 0.43 ng/mL and 0.37 ng/mL and 0.32 ng/mL and 0.63 ng/mL and 0.48 ng/mL
same,survival (Alive/Dead),"[7]; 0 hr, mercury chloride 2 mg/kg body weight, OSR 0.5 millimoles/kg subcutaneous 20 min after",A
same,survival (Alive/Dead),"[7]; 0 hr, mercury chloride 14 mg/kg body weight, OSR 1 mM/kg body weight subcutaneous 20 min after",A
same,survival (Alive/Dead),"[7]; 1 week, mercury chloride 2 mg/kg body weight, OSR 0.5 millimoles/kg subcutaneous 20 min after",A
same,survival (Alive/Dead),"[7]; 1 week, mercury chloride 14 mg/kg body weight, OSR 1 mM/kg body weight subcutaneous 20 min after",A
same,survival (Alive/Dead),"[7]; 6 hr, mercury chloride 2 mg/kg body weight, OSR 0.5 millimoles/kg subcutaneous 20 min after",A
same,survival (Alive/Dead),"[7]; 6 hr, mercury chloride 14 mg/kg body weight, OSR 1 mM/kg body weight subcutaneous 20 min after",A
same,survival (Alive/Dead),"[7]; 12 hr, mercury chloride 2 mg/kg body weight, OSR 0.5 millimoles/kg subcutaneous 20 min after",A
same,survival (Alive/Dead),"[7]; 12 hr, mercury chloride 14 mg/kg body weight, OSR 1 mM/kg body weight subcutaneous 20 min after",A
same,survival (Alive/Dead),"[7]; 24 hr, mercury chloride 2 mg/kg body weight, OSR 0.5 millimoles/kg subcutaneous 20 min after",A
same,survival (Alive/Dead),"[7]; 24 hr, mercury chloride 14 mg/kg body weight, OSR 1 mM/kg body weight subcutaneous 20 min after",A
same,survival (Alive/Dead),"[7]; 48 hr, mercury chloride 2 mg/kg body weight, OSR 0.5 millimoles/kg subcutaneous 20 min after",A
same,survival (Alive/Dead),"[7]; 48 hr, mercury chloride 14 mg/kg body weight, OSR 1 mM/kg body weight subcutaneous 20 min after",D and A
same,"protection from mercury induced toxic effects (blood in urine and feces, death, weight loss, ataxia)","[7]; rats given 0.6 lethal dose of mercury chloride, 10-fold excess of OSR twenty-thirty minutes later",protected from mercury induced toxic effects
same,excretion route of OSR bound mercury,[7]; rats given mercury chloride and OSR,primarily excreted through the fecal route
same,protection from death,"[7]; rats injected with 1-5 levels (or higher) of lethal doses of mercury chloride, single 10-fold excess of OSR dissolved in DMSO",protected from death
same,"affinity for mercury, lead, arsenic and cadmium",[8],exceptionally high affinity
same,"lowering of essential elements copper, iron and zinc",[9],does not result in a significant lowering
same,lipid solubility,Solubility,lipid soluble
